Laboratory results taken from patent US10472334B2, “Small molecules for inhibiting male fertility” (The University of North Carolina at Chapel Hill, priority 2014, dated 2019).

What was measured:
human spermatozoa = test: Intracellular free calcium in Fluo-4 loaded spermatozoa; assay type: cell-based
Experimental: A series of experiments was performed to determine the mechanism of action of the compounds described herein. The experiments were carried out as described in O'Rand and Widgren, “Loss of Calcium in Human Spermatozoa via EPPIN, the Semenogelin Receptor,” Biology of Reproduction, (2012) 86(2):55, 1-7.
Fluo-4 AM-loaded spermatozoa were pipetted into 96-well black-walled plates (Perkin Elmer, Waltham, Mass.) at 1.13105-0.93105 spermatozoa/well in 50 μl of M16M at 378 C, and read in a BioTek (Winookski, Vt.) Synergy2 Multiplatform automated plate reader (with heater and shaker). Wells were excited using a 485/20 filter, and emission was read with a 528/20 filter, and data were acquired using a kinetic modification of the Alexafluor 488 protocol in the Gen5 software program (BioTek). […] After treatment of spermatozoa in each well with control or test reagents was completed (10-15 min), the Fluo-4 in the spermatozoa in each well was calibrated by adding ionomycin (2.5 μM), followed 15 min later by the addition of Mn^2 (2 mM MnCl2) to bring the fluorescence (F) to 30% of that of the saturated dye. […] Using these values for each well, the Fmax and Fmin were calculated according to the method of Kao et al. [Kao et al., J Biol Chem. 1989; 264:8179-8184.].
Fluorescence measurements were converted to calcium concentration according to the equation [Ca^2+]=Kd([F−Fmin]/[Fmax−F]) […]

Caco-2 cells = test: In vitro absorption, Caco-2 permeability and recovery; assay type: in vitro ADME
Experimental: (§1) The in vitro absorption was measured using methods described in Hidalgo, I. J. et al. (1989), Gastroenterology, 96: 736-749.
(§2) The apparent permeability coefficient (Papp) of the test compound was calculated as follows:
(§3) [formula] where VR is the volume of the receiver chamber. CR, end is the concentration of the test compound in the receiver chamber at the end time point, Δt is the incubation time and A is the surface area of the cell monolayer. CD, mid is the calculated mid-point concentration of the test compound in the donor side, which is the mean value of the donor concentration at time 0 minute and the donor concentration at the end time point. CR, mid is the mid-point concentration of the test compound in the receiver side, which is one half of the receiver concentration at the end time point. Concentrations of the test compound were expressed as peak areas of the test compound.
(§4) The recovery of the test compound was calculated as follows: […]
(§5) where VD and VR are the volumes of the donor and receiver chambers, respectively. CD,end is the concentration of the test compound in the donor sample at the end time point. CR,end is the concentration of the test compound in the receiver sample at the end time point. CD0 is the concentration of the test compound in the donor sample at time zero. Concentrations of the test compound are expressed as peak areas of the test compound. […]

[1] = as above; assay type: in vitro ADME; details: human, Caco-2; read-out: permeability to Caco-2 cells
Experimental: as §1, §2, §3, §4, §5

Recovery from the permeability assay (Caco-2 cells): 93%
Papp [1]: 0.2 ×10⁻⁶ cm/s
SMILES: CCOC(=O)CSc1nc(NNC(=O)OC)nc(Nc2ccc(NC(=O)OC)c(O)c2)n1 [TZ4_121, [4-(3-Hydroxy-4-methoxycarbonylamino-phenylamino)-6-(N′methoxycarbonyl-hydrazino)-1,3,5-triazin-2-ylsulfanyl]-acetic acid ethyl ester]
change in intracellular calcium of spermatozoa (human spermatozoa): significant loss of calcium
